The nature of data set [1]: Acute toxicity (LD50) in mice. The conditions noted are these: mouse, in vivo, oral administration. The source says:
In view of the above-described problems, this invention relates to a series of analgesic 5,9-methanocycloocta[b]pyridin-2(H)-one derivatives.
The compounds of Formula I release huperzine A after p.o. administration. The amount of huperzine A released in artificial gastric fluid at various time intervals after administration of (5R,9R,11E)-5-(3-phenylprop-2-en-1-ylideneamino)-11-ethylidene-5,6,9,10-tetrahydro-7-methyl-5,9-methanocycloocta[b]pyridin-2(1H)-one is listed in Table 2. […] Accordingly, (5R,9R,11E)-5-(3-phenylprop-2-en-1-ylideneamino)-11-ethylidene-5,6,9,10-tetrahydro-7-methyl-5,9-methanocycloocta[b]pyridin-2(1H)-one is a pro-drug of huperzine A, and releases huperzine A in a sustained fashion. Sustained release of huperzine A can well explain lower toxicity of compounds of Formula I compared with Huperzine A (see Table 1).

In another data set the test system is mice. In words: Analgesic effect of intragastric administration on mice measured with hot-plate test. The data set is classed as in vivo, ICR mice. The conditions noted are these: x ± s, n = 10; for pain-threshold after administration / pain-threshold before administration: time course; for pain-threshold before administration / pain threshold before administration: baseline. The protocol:
The analgesic effect with a single dose of the compounds represented by Formula I is preliminarily screened at single time point through hot-plate test, with fortanodyn and aspirin as positive controls. All of the compounds are administered intragastrically.
On the basis of preliminary screening results, several representative compounds were selected to test their analgesic duration, and a part of the results is listed in Table 4. The results illustrate that the analgesic duration of most compounds is longer than 2 hours after a single oral administration, and that some of the compounds have analgesic duration lasting longer than 4 hours.
Furthermore, the dose-effect relationship on an analgesic model of two compounds was tested and the results are shown in Table 5.
Analgesic effect of intragastric administration on mice measured with hot-plate test
Female ICR mice, weight 20+2 g, were purchased from Department of Laboratory Animal Science, Beijing University, animal license number: SCXK 2002-0001.
A) Samples: samples were prepared as mixtures with 0.9% NaCl solution for intragastric administration to mice.
B) Fortanodyn: 30 mg/pill (TianJin LiSheng Pharmaceutical Co. Ltd, lot number: 0201001), 1.5 mg/mL solution was prepared with 0.9% NaCl solution for intragastric administration to mice.
1) Hot-plate test on mice was employed. A thermostatic water bath was adjusted at 55±0.5° C., the bottom of metal plates contacted water surface and used as stimuli after heating. The time span(s) from the point when the mouse was placed onto the hot-plate to the time when the mouse started to lick its metapedes was determined as its pain threshold, which was recorded by stopwatch. Female mice with a weight of 20±2 g were used. The pain threshold of every mouse was measured twice before administration, and the qualified mice are the ones whose average pain threshold was less than 30 seconds.
The qualified mice were randomly grouped with 10 mice in each group. The pain threshold before administration was determined as the basic pain threshold. To the medication administration team, drugs of different dose were given through intragastric administration, whereas to the control group, 0.9% NaCl solution was given. The administration volume was 0.2 mL for every 10 g body weight. The pain threshold of each group was measured at 1 hour after administration.
After administration the pain threshold of each group at different time was measured. The experimental data was statistically treated with t-test using SPSS10 statistics software.

Where [2] appears, read: Table 3 screening, 0.6 mg/kg intragastric, 1 hour.
Setting [3] is: Table 3 screening, group dosed 0.6 mg/kg intragastric.
The mark [4] stands for this setting: 0.84 mg/kg intragastric, 30 min.
Where [5] appears, read: 0.84 mg/kg intragastric, 60 min.
Where [6] appears, read: 0.84 mg/kg intragastric, 120 min.
Where [7] appears, read: 0.84 mg/kg intragastric, 180 min.
The mark [8] stands for this setting: group dosed 0.84 mg/kg intragastric.

`C/C=C1\[C@H]2C=C(C)C[C@]1(N)c1ccc(=O)[nH]c1C2` [Example 1, (5R,9R,11E)-5-amino-11-ethylidene-5,6,9,10-tetrahydro-7-methyl-5,9-methanocycloocta[b]pyridin-2(1H)-one, reference compound] gave an LD50 in data set [1] of 3.8 mg/kg.

In the case of `C/C=C1\[C@H]2C=C(C)C[C@]1(/N=C/C=C/c1ccccc1)c1ccc(=O)[nH]c1C2` [Example 2, (5R,9R,11E)-5-(3-phenylprop-2-en-1-ylideneamino)-11-ethylidene-5,6,9,10-tetrahydro-7-methyl-5,9-methanocycloocta[b]pyridin-2(1H)-one], the LD50 in data set [1] came to 26.5 mg/kg. The pain-threshold after administration is 34.0 ± 11.42 s in the data set with mice (0.73 mg/kg intragastric, 30 min); 36.5 ± 10.91 s in the data set on mice (0.73 mg/kg intragastric, 60 min); 29.0 ± 7.83 s in the data set on mice (0.73 mg/kg intragastric, 120 min); 24.0 ± 5.44 s in the data set on mice (0.73 mg/kg intragastric, 180 min); 18.3 ± 5.31 s in the data set on mice (0.73 mg/kg intragastric, 240 min).

With `C/C=C1\[C@H]2C=C(C)C[C@]1(/N=C/C=C/c1ccc(Cl)cc1)c1ccc(=O)[nH]c1C2` [Example 14, (5R,9R,11E)-5-(3-(4-chlorophenyl)prop-2-en-1-ylideneamino)-11-ethylidene-5,6,9,10-tetrahydro-7-methyl-5,9-methanocycloocta[b]pyridin-2(1H)-one], the LD50 in data set [1] came to 35.6 mg/kg. In addition, the pain-threshold after administration came out at 47.9 ± 12.95 s with mice (0.81 mg/kg intragastric, 30 min); 45.9 ± 15.42 s in the data set with mice (0.81 mg/kg intragastric, 60 min); 31.0 ± 12.04 s in the data set with mice (0.81 mg/kg intragastric, 120 min); 25.1 ± 8.10 s in the data set on mice (0.81 mg/kg intragastric, 180 min); 26.2 ± 9.69 s in the data set with mice (0.81 mg/kg intragastric, 240 min). For the same compound, the pain-threshold before administration in the data set on mice (group dosed 0.81 mg/kg intragastric) is 12.6 ± 4.25 s.

As to `C/C=C1\[C@H]2C=C(C)C[C@]1(N=CC=Cc1ccncc1)c1ccc(=O)[nH]c1C2` [Example 20, (5R,9R,11E)-5-(3-(pyridin-4-yl)prop-2-en-1-ylideneamino)-11-ethylidene-5,6,9,10-tetrahydro-7-methyl-5,9-methanocycloocta[b]pyridin-2(1H)-one], in the data set with mice (setting [2]), the “pain threshold after administration” value is recorded as 25.0 ± 5.18 s. Further, the “pain threshold before administration” value with mice (setting [3]) turned out to be 12.6 ± 2.42 s.

Take `C/C=C1\[C@H]2C=C(C)C[C@]1(/N=C/C=C/c1ccco1)c1ccc(=O)[nH]c1C2` [Example 21, (5R,9R,11E)-5-(3-(furan-2-yl)prop-2-en-1-ylideneamino)-11-ethylidene-5,6,9,10-tetrahydro-7-methyl-5,9-methanocycloocta[b]pyridin-2(1H)-one]: the “pain threshold after administration” value stood at 16.3 ± 4.47 s in the data set with mice (dose-effect, 0.42 mg/kg intragastric, 30 min); 16.4 ± 4.03 s in the data set on mice (dose-effect, 0.42 mg/kg intragastric, 60 min); 13.2 ± 2.86 s in the data set on mice (dose-effect, 0.42 mg/kg intragastric, 120 min); 14.1 ± 1.66 s in the data set with mice (dose-effect, 0.42 mg/kg intragastric, 180 min). For the same compound, in the data set on mice (dose-effect, group dosed 0.42 mg/kg intragastric), the “pain threshold before administration” value amounted to 12.5 ± 2.79 s. The pain-threshold after administration amounted to 17.2 ± 6.37 s in the data set on mice (0.71 mg/kg intragastric, 30 min); 21.0 ± 8.77 s in the data set on mice (0.71 mg/kg intragastric, 60 min); 16.9 ± 8.32 s in the data set on mice (0.71 mg/kg intragastric, 120 min); 12.9 ± 3.87 s in the data set with mice (0.71 mg/kg intragastric, 180 min); 23.3 ± 7.45 s in the data set with mice (setting [4]); 28.1 ± 10.15 s with mice (setting [5]). The pain-threshold after administration in the data set on mice (setting [6]) is 14.9 ± 5.02 s; in the data set on mice (setting [7]), 13.7 ± 2.98 s. For the same compound, the pain-threshold before administration stood at 11.9 ± 3.90 s in the data set with mice (group dosed 0.71 mg/kg intragastric) and 12.3 ± 3.86 s in the data set on mice (setting [8]).

Regarding `C/C=C1\C2C=C(C)CC1(/N=C/C=C/c1ccc3ccccc3c1)c1ccc(=O)[nH]c1C2` [Example 22, (5R,9R,11E)-5-(3-(naphthalen-2-yl)prop-2-en-1-ylideneamino)-11-ethylidene-5,6,9,10-1,7-dimethyl-5,9-methanocycloocta[b]pyridin-2(1H)-one], the “pain threshold after administration” value in the data set with mice (setting [2]) is listed as 23.6 ± 4.27 s. Further, the “pain threshold before administration” value with mice (setting [3]) stood at 12.4 ± 4.13 s.

As to `C/C=C1\C2C=C(C)CC1(/N=C/C=C/c1cccc3ccccc13)c1ccc(=O)[nH]c1C2` [Example 23, (5R,9R,11E)-5-(3-(naphthalen-1-yl)prop-2-en-1-ylideneamino)-11-ethylidene-5,6,9,10-1,7-dimethyl-5,9-methanocycloocta[b]pyridin-2(1H)-one], the LD50 in data set [1] was 43.2 mg/kg. Also, the pain-threshold after administration with mice (setting [4]) turned out to be 23.3 ± 7.45 s; in the data set on mice (setting [5]) it was 28.1 ± 10.15 s; in the data set on mice (setting [6]) it was 14.9 ± 5.02 s; in the data set on mice (setting [7]), 13.7 ± 2.98 s. Besides, in the data set on mice (setting [8]), the pain-threshold before administration turned out to be 12.3 ± 3.86 s.

`C/C=C1\C2C=C(C)CC1(/N=C/C=C/c1c3ccccc3cc3ccccc13)c1ccc(=O)[nH]c1C2` [Example 26, (5R,9R,11E)-5-(3-(anthracen-9-yl)prop-2-en-1-ylideneamino)-11-ethylidene-5,6,9,10-1,7-dimethyl-5,9-methanocycloocta[b]pyridin-2(1H)-one]: in the data set with mice (setting [2]), the “pain threshold after administration” value is 20.8 ± 3.60 s.

Regarding `C/C=C1\C2C=C(C)CC1(/N=C\c1ccc(/C=C/C=N/C34CC(C)=CC(Cc5[nH]c(=O)ccc53)/C4=C\C)cc1)c1ccc(=O)[nH]c1C2` (centres unmarked) [Example 27], the “pain threshold after administration” value in the data set with mice (setting [2]) amounted to 21.2 ± 5.53 s. In addition, the “pain threshold before administration” value in the data set on mice (setting [3]) is recorded as 12.4 ± 3.14 s.

Consider `C/C=C1\C2C=C(C)CC1(/N=C\C=C\c1ccc(/C=C/C=N/C34CC(C)=CC(Cc5[nH]c(=O)ccc53)/C4=C\C)cc1)c1ccc(=O)[nH]c1C2` [Example 28], for which the “pain threshold after administration” value in the data set on mice (setting [2]) worked out at 23.4 ± 3.88 s. The “pain threshold before administration” value with mice (setting [3]) was found to be 12.6 ± 2.73 s.

The values above are taken from US8053577B2, “Derivatives of 5,9-methanocycloocta[b]pyridin-2-(1H)-one, their preparation and use as analgesics” (priority 2006, dated 2011).
